How the values were obtained:
human platelets = details: exogenous cysLTs; inventors' previous work (ref 49); cited from earlier work
mice = details: pathway depends on platelet associated P2Y12 receptors (ref 49); cited from earlier work
[1] = test system: fMLP-stimulated granulocytes; test: Suppression of fMLP-induced LTB4 generation by granulocytes from subjects with AERD; format: cell-based, human; details: pretreatment of granulocytes from subjects with AERD; FIG. 12B-12C
From the text: FIG. 12A depicts a graph of percentages of platelet-adherent neutrophils (determined by CD61^+ expression) in whole blood from eight subjects with AERD plotted against quantity of LTB4 generated by fMLP-stimulated granulocytes from the same individuals. Percent suppression of fMLP-induced LTB4 by pretreatment with (FIG. 12B) PGE2 or (FIG. 12C) the EP2 receptor-specific agonist was plotted against percentages of platelet-adherent neutrophils in the peripheral blood of each subject. Effect size, determined with Pearson correlation coefficient, is denoted as an r value.
Platelet-rich plasma was removed from whole peripheral blood by centrifugation, washed, and resuspended at a concentration of 1×10^9 platelets/mL. […] Granulocytes were counted and a portion was stripped of adherent platelets by incubation with 0.05% trypsinethylenediaminetetraacetic acid for 15 minutes at 37° C.^17 Removal of adherent platelets was confirmed by cytofluorographic analysis of samples of the granulocytes before and after trypsinization. […]
The percentage of platelet-adherent neutrophils (as determined by CD61+ expression) in the whole blood of subjects with AERD was positively correlated with the amount of LTB4 generated by fMPL-stimulation of granulocytes from the same subjects (FIG. 12A). […]

[2] = extracellular milieu (ref 43); cited from earlier work

For `CCCCC/C=C\C\C=C/C=C/C=C/[C@@H](SC[C@H](N)C(=O)O)[C@@H](O)CCCC(=O)O` [LTE4], the “adherence of platelets to granulocytes” value (human platelets) is listed as “do not directly cause human platelets to adhere to granulocytes” and the pulmonary eosinophilia (mice) is listed as “markedly potentiates pulmonary eosinophilia”.
With `CCCCC[C@H](O)/C=C/[C@H]1[C@H](O)CC(=O)[C@@H]1C/C=C\CCCC(=O)O` [PGE2] the “suppression of leukotriene production (fMLP-induced LTB4)” value [1] was “able to suppress leukotriene production”.
For `CCCCC/C=C\C\C=C/C=C/C=C/[C@@H]1O[C@H]1CCCC(=O)O` [LTA4, leukotriene (LT)A4], the extracellular half-life [2] is listed as “less than 5 seconds”.

— US20150253327A1, “DIAGNOSIS AND TREATMENT OF ASPIRIN-EXACERBATED RESPIRATORY DISEASE (AERD)” (BRIGHAM AND WOMEN'S HOSPITAL, INC., priority 2012, published 2015)
